Experimental data reported in publication PMC4601051, “Discovery of Indoline-2-carboxamide Derivatives as a New Class of Brain-Penetrant Inhibitors of Trypanosoma brucei” (Journal of Medicinal Chemistry, 2015).

Experiments:
[1] = system: T. b. brucei GVR35; details: 12.5 mg/kg IP b.i.d. for 5 d from 21 d post infection, majority of mice
Experimental: For stage 2 of infection, the standard model is T. b. brucei GVR35 in which CNS infection is allowed to develop in female NMRI mice before treatment starts, requiring about 21 d.
These were carried out as previously described[27],[32] at the dose level presented and using the same dose formulation as the pharmacokinetic studies. HRN mice were used under the same infection and monitoring protocol as described for female NMRI mice.

[2] = Maximum tolerated dose (MTD) studies
[3] = system: bloodstream form T. brucei brucei; assay: T. b. brucei whole cell parasite (trypanosome growth) assay; type: cell-based, Trypanosoma brucei brucei
Experimental: This was conducted as previously described.[27] Cell culture plates were stamped with 1 μL of an appropriate stock concentration of test compound, followed by addition of 200 μL of trypanosome culture (HMI9-T, 10% FCS) to each well at a density of 2000 cells per well (except column 12 receiving media only). […] Potency was carried out using 10-point dose–response curves.

Compound: CNC(=O)[C@H]1Cc2ccccc2N1C(=O)Cc1ccc(F)cc1 [Compound 47, (R)-1-(2-(4-Fluorophenyl)acetyl)-N-methylindoline-2-carboxamide]
- relapse with parasitaemia later than vehicle dosed infected mice [1]: 6 to 13 days
- tolerability ([2]; 15 mg/kg IP b.i.d., female NMRI mice (47: for 3 days)): well tolerated
- tolerability ([2]; 25 mg/kg after a single dose, female NMRI mice): clinical signs of toxicity
- Hill slope ([3]; T. brucei EC50 curve): 2.8
- EC50 ([3]; Trypanosoma brucei, mean of two or more determinations, 69 h + 4 h resazurin, read-out: T. b. brucei EC50): 50 nM
